Columns and labels:
[1] = system: MDA-MB-435 breast adenocarcinoma xenograft; assay: In vivo antitumor activity, established mammary fat pad xenograft; settings: low doses as single agents, 3 weeks i.p.
[2] = Toxicity (body weight, deaths) in tumor-bearing mice; settings: 3 weeks
Experimental: Drug Preparation and Treatment: Suspensions of Compound II were prepared by combining the drug and Pluronic F68 block copolymer at 1:9 or 1:18 ratios of drug to polymer, to prepare suspensions in the concentration range 0-10 mg/ml and 20 mg/ml respectively. […] The final ratio of liquid components (EtOH, Cremophor, and saline) were 5:5:90, respectively. The experiment consisted of 16 groups which contained a vehicle group, 3 groups given Paclitaxel at 7.5, 15 and 30 mg/kg as a single agent, 3 groups given Compound II at 12.5, 25 and 50 mg/kg as a single agent and […] combination groups of all doses of Paclitaxel and Compound II.
All mice were observed and weighed as groups, 7 times per week for three weeks. The average weight of individual mice was calculated by dividing the group weight by the number of animals per group. Percent body weight change was calculated using the formula:
(Current Average Weight−Initial Average Weight/Initial Average Weight) ×100.

Row | Structure (SMILES) | antitumor efficacy [1] | Deaths/Total ([2]; Paclitaxel 7.5 mg/kg i.p. q.d. 5x/week) | Deaths/Total ([2]; Paclitaxel 15 mg/kg i.p. q.d. 5x/week) | Deaths/Total ([2]; Paclitaxel 30 mg/kg i.p. q.d. 3x/week)
1 | CC(=O)O[C@H]1C(=O)[C@@]2(C)[C@H]([C@H](OC(=O)c3ccccc3)[C@]3(O)C[C@H](OC(=O)[C@H](O)[C@@H](NC(=O)c4ccccc4)c4ccccc4)C(C)=C1C3(C)C)[C@]1(OC(C)=O)CO[C@@H]1C[C@@H]2O [Paclitaxel, paclitaxel] | only minimally effective | 2/10 | 0/10 | 0/10
2 | Cn1cc(C2=C(c3cn(C)c4cc([N+](=O)[O-])ccc34)C(=O)NC2=O)c2ccccc21 [Compound II] | only minimally effective | – | – | –

From patent US6548531B2, “Method for cancer therapy” (priority 2001, dated 2003)
